According to patent US20200325178A1, “PEPTIDE NUCLEIC ACID MOLECULES FOR TREATMENT OF GRAM POSITIVE BACTERIAL INFECTION” (priority 2017, published 2020):

Assays:
MSSA = assay: In vitro assay of emergence of resistance, MSSA, 8 days; format: cell-based, S. aureus; details: 6.25 μg (twice MBC) in one ml Mueller Hinton broth, 37° C., through Day 8
Experimental: To determine the development of resistance in MRSA and MSSA strains against Compound I-HCl and Compound IV-HCl, an in vitro assay was performed. Twice the amount of MBC of Compound I-HCl (6.25 μg) and Compound IV-HCl (6.25 μg) were mixed with ˜5.0 log 10 CFUs in one ml of Mueller Hinton broth and incubated for 8 days at 37° C. Eight tubes of culture were used for each drug and bacterial strains. At 24 hours of interval, culture tubes were centrifuged and spent media were replaced with fresh media in presence of Compound I-HCl and Compound IV-HCl and further incubated to observe the growth of S. aureus strains. At 24 hours interval, one set of culture tube exposed to drugs were selected and a fraction of the culture used to plate on agar plates to observe the reduction of CFU counts as compared to untreated control. The rest of the culture samples were allowed to grow without any drug for additional 24 hours to observe the growth of S. aureus strains. One set of culture tubes without drug was used as the positive control.
The assays above were also performed using MSSA strains and Compounds I and IV.

S. aureus MSSA strains = assay: Bioscreen-C dose response growth curve of MSSA over 24 hours; format: cell-based, Staphylococcus aureus; details: HCl salts, doses from 100 μg downwards, 10 mM sodium bicarbonate buffer pH-7.4, OD 420-580 nm
Experimental: Bioscreen-C instrument was used to detect the MIC and MBC of PNA-CPP derivatives against S. aureus MSSA strains. Different concentrations of PNA-CPP derivatives were prepared in 10 mM of sodium bicarbonate buffer pH-7.4 and added to ˜5.0 Log 10 CFUs in a Honey comb Bioscreen-C plate.
Compound I-V were assayed against MSSA. FIG. 12-16 show a dose response growth curve of MSSA in presence of increasing concentrations of Compound I-HCl (FIG. 12), Compound II-HCl (FIG. 13), Compound III-HCl (FIG. 14), Compound IV-HCl (FIG. 15), and Compound V-HCl (FIG. 16), determined in a Bioscreen-C spectrophotometer.

S. aureus MRSA strains = assay: Bioscreen-C dose response growth curve of MRSA over 24 hours; format: cell-based, Staphylococcus aureus; details: HCl salts, doses from 100 μg downwards, 10 mM sodium bicarbonate buffer pH-7.4, OD 420-580 nm
Experimental: Bioscreen-C instrument was used to detect the MIC and MBC of PNA-CPP derivatives against S. aureus MRSA strains. Different concentration of PNA-CPP derivatives were prepared in 10 mM of sodium bicarbonate buffer pH-7.4 and added to ˜5.0 Log 10 CFUs in a Honey comb Bioscreen-C plate.
Compound I-V were assayed against MRSA. FIG. 6-10 show a dose response growth curve of MRSA in presence of increasing concentrations of Compound I-HCl (FIG. 6), Compound II-HCl (FIG. 7), Compound III-HCl (FIG. 8), Compound IV-HCl (FIG. 9), and Compound V-HCl (FIG. 10), determined in a Bioscreen-C spectrophotometer.

Substance: Compound I: PNA-CPP conjugate: PNA cgt cat acg cgg tcc (SEQ ID NO: 51), AEEA linker, CPP BXRXRRXRRXRRXR; FIG. 1 (CGTCATACGCGGTCC; all peptide nucleic acid (PNA); cell-penetrating peptide attached via AEEA linker, further chemistry not fully specified)
- MSSA CFU counts and emergence of resistant strains (MSSA): reduced MSSA CFUs without emergence of resistant strains
- lowest dose at which no MSSA growth was observed (growth curve) (S. aureus MSSA strains): 3.13 µg
- lowest dose at which no MRSA growth was observed (growth curve) (S. aureus MRSA strains): 3.13 µg
